Measured values taken from US6656911B2, “Serine protease inhibitors” (Cortech, Inc., priority 1994, dated 2003).

What was measured:
[1] = biological target: T1, elastase derived from human sputum (HSE) (Homo sapiens, UniProt P08246); assay: In vitro inhibition of elastase (ONO-PO series); format: biochemical; settings: substrate N-methoxysuccinyl-Ala-Ala-Pro-Val-p-nitroaniline, 37° C., pH 8.0, IC50 converted to Ki by Dixson plot
T1 construct: prepared from commercially available HSE (875 U/mg protein, SE-563, Elastin Product Co., Inc., Missouri, USA); purchased Elastin Product Co., Inc., Missouri, USA SE-563; host or cells: human sputum (natural enzyme)
T1 sequence (P08246 30-247 limits assumed): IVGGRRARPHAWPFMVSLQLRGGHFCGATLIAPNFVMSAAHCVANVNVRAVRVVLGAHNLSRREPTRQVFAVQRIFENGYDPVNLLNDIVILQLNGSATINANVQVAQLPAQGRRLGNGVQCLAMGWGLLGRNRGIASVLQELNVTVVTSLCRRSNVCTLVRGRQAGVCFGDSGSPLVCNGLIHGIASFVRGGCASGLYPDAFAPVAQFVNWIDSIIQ

[2] = biological target: T2, human neutrophil elastase (HNE) (Homo sapiens, UniProt P08246); assay: HNE Ki of CE compounds, tested as described in WO 96/16080; format: biochemical; settings: read-out: HNE Ki
T2 sequence (P08246 30-267): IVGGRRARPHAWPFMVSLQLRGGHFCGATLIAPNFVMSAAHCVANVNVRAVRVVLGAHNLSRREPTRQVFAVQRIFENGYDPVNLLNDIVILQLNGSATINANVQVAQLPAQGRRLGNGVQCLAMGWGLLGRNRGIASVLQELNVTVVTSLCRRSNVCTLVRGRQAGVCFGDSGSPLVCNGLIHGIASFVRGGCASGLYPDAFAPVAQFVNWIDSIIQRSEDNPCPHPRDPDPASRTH

[3] = Blood level screening after oral dose; format: in vivo, Sprague-Dawley rats; settings: rat, oral gavage 10 mg/kg; for concentration at 1 h / concentration at 3 h / concentration at 6 h: male, Sprague-Dawley, plasma; for concentration at 1 h: read-out: Plasma Levels (μM) 1 hr; for concentration at 3 h: read-out: Plasma Levels (μM) 3 hr; for concentration at 6 h: read-out: Plasma Levels (μM) 6 hr
Summary of the method: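 Unfasted male Sprague-Dawley rats received 10 mg/kg by oral gavage in PEG, PEG-400 or PEG:H2O:EtOH. Plasma was solvent-extracted and the inhibitor measured by HPLC or LC/MS.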

[4] = system: polymorphoneucleocyte (PMN); assay: Extracellular Matrix (ECM) degradation assay; format: cell-based; settings: PMN's stimulated with opsonized zymosan, 4 hr at 37° C.; for ECM DATA % Inhibition 1 uM / inhibition at 1 µM: 1 uM inhibitor; for ECM DATA % Inhibition 5 uM / inhibition at 5 µM: 5 uM inhibitor
Summary of the method: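 Radiolabelled ([35S]sulfate/[3H]proline) ECM from R22 rat smooth muscle cells preincubated 30 min with 1 or 5 uM inhibitor in HBSS (<2% DMSO). PMNs (5×10^5/well) stimulated with serum-opsonized zymosan (10 particles/PMN), 4 h at 37 °C. Degradation = released over total ECM counts, minus PMN-free basal release.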

Ki [1] [nM]	Ki [2] [nM]	Plasma Levels (μM) 1 hr [3] [µM]	Plasma Levels (μM) 3 hr [3] [µM]	Plasma Levels (μM) 6 hr [3] [µM]	concentration at 1 h [3] [µM]	concentration at 3 h [3] [µM]	concentration at 6 h [3] [µM]	SMILES	ECM DATA % Inhibition 1 uM [4] [%]	ECM DATA % Inhibition 5 uM [4] [%]	inhibition at 1 µM [4] [%]	inhibition at 5 µM [4] [%]
36.3	–	–	–	–	–	–	–	CC(C)C(NC(=O)Cn1c(-c2ccccc2)nccc1=O)C(=O)c1nnc(C(C)(C)C)o1 (racemic) [ONO-PO-737, 2-[6-Oxo-2-phenyl)-1,6-dihydro-1-pyrimidinyl]-N-[1-(2-[5-tert-butyl-1,3,4-oxadiazolyl]carbonyl)-2-(R,S)-methylpropyl]acetamide]	–	–	–	–
–	14	0.598	0.289	0.078	–	–	–	Cc1cccc(Cc2nnc(C(=O)[C@@H](NC(=O)CN3C(=O)NC4(CCCCC4)C3=O)C(C)C)o2)c1 [CE2241, 4-Spirocyclohexane-2,5-imidazolidinedione-N-[1-(2-[5-(3-methylbenzyl)-1,3,4-oxadiazolyl]carbonyl)-2-(S)-methylpropyl]acetamide]	18.6	31.7	–	–
–	11	2.801	2.104	1.598	–	–	–	Cc1cccc(Cc2nnc(C(=O)[C@@H](NC(=O)CN3C(=O)N[C@H](Cc4c[nH]c5ccccc45)C3=O)C(C)C)o2)c1 [CE2243, 4-(R)-(3-Indolemethylene)-2,5-imidazolidinedione-N-[1-(2-[5-(3-methylbenzyl)-1,3,4-oxadiazolyl]carbonyl)-2-(S)-methylpropyl]acetamide]	48	54.9	–	–
–	13	1.179	0.704	0.213	–	–	–	COC(=O)CCC[C@H]1NC(=O)N(CC(=O)N[C@H](C(=O)c2nnc(Cc3cccc(C)c3)o2)C(C)C)C1=O [CE2249, 4-(R)-(3-Carbomethoxy)propyl-2,5-imidazolidinedione-N-[1-(2-[5-(3-methylbenzyl)-1,3,4-oxadiazolyl]carbonyl)-2-(S)-methylpropyl]acetamide]	22.4	42.4	–	–
–	1.9	0.114	0.188	0.1	–	–	–	Cc1cccc(Cc2nnc(C(=O)[C@@H](NC(=O)CN3C(=O)NC(c4ccccc4)(c4ccccc4)C3=O)C(C)C)o2)c1 [CE2252, 4,4-Diphenyl-2,5-imidazolidinedione-N-[1-(2-[5-(3-methylbenzyl)-1,3,4-oxadiazolyl]carbonyl)-2-(S)-methylpropyl]acetamide]	45.4	65.2	–	–
–	11	–	–	–	0.282	0.246	0.163	Cc1cccc(Cc2nnc(C(=O)[C@@H](NC(=O)CN3C(=O)NC4(Cc5ccccc5C4)C3=O)C(C)C)o2)c1 [CE2253, 4-Spiro-(2-indanyl)-2,5-imidazolidinedione-N-[1-(2-[5-(3-methylbenzyl)-1,3,4-oxadiazolyl]carbonyl)-2-(S)-methylpropyl]acetamide]	–	–	31.9	45.9
–	16	0.9	0.33	0.2	–	–	–	CC(C)[C@H](NC(=O)CN1C(=O)N[C@H](Cc2ccc(O)cc2)C1=O)C(=O)c1nnc(Cc2ccc3c(c2)OCO3)o1 [CE2256, 4-(R)-(4-Hydroxybenzyl)-2,5-imidazolidinedione-N-[1-(2-[5-(3,4-methylenedioxybenzyl)-1,3,4-oxadiazolyl]carbonyl)-2-(S)-methylpropyl]acetamide]	24	47.8	–	–
–	0.39	–	–	–	3.53	3.05	1.89	Cc1cccc(Cc2nnc(C(=O)[C@@H](NC(=O)Cn3c(-c4ccccc4)ncc(N)c3=O)C(C)C)o2)c1 [CE2260, 2-[5-Amino-6-oxo-2-phenyl-1,6-dihydro-1-pyrimidinyl]-N-[1-(2-[5-(3-methylbenzyl)-1,3,4-oxadiazolyl]carbonyl)-2-(S)-methylpropyl]acetamide]	–	–	68.3	59.7
78.3	–	–	–	–	–	–	–	CC(C)[C@H](NC(=O)Cn1c(-c2ccc(F)cc2)ncc(NC(=O)OCc2ccccc2)c1=O)C(=O)c1nnc(C(C)(C)c2ccccc2)o1 [ONO-PO-690, 2-[5-(Benzyloxycarbonyl)amino-6-oxo-2-(4-fluorophenyl)-1,6-dihydro-1-pyrimidinyl]-N-[1-(2-[5-(α,α-dimethylbenzyl)-1,3,4-oxadiazolyl]carbonyl)-2-(S)-methylpropyl]acetamide]	–	–	–	–

The next lines start with the molecule.

SMILES	Ki [1] [nM]	Ki [2] [nM]	Plasma Levels (μM) 1 hr [3] [µM]	Plasma Levels (μM) 3 hr [3] [µM]	Plasma Levels (μM) 6 hr [3] [µM]	concentration at 1 h [3] [µM]	concentration at 3 h [3] [µM]	concentration at 6 h [3] [µM]	ECM DATA % Inhibition 1 uM [4] [%]	ECM DATA % Inhibition 5 uM [4] [%]	inhibition at 1 µM [4] [%]	inhibition at 5 µM [4] [%]
Cc1cccc(Cc2nnc(C(=O)[C@@H](NC(=O)CN3C(=O)N[C@H](CC(C)C)C3=O)C(C)C)o2)c1 [CE2246, 4-(R)-(2-Isobutyl)-2,5-imidazolidinedione-N-[1-(2-[5-(3-methylbenzyl)-1,3,4-oxadiazolyl]carbonyl)-2-(S)-methylpropyl]acetamide]	–	18.5	1.182	0.837	0.496	–	–	–	−2.3	32.6	–	–
Cc1cccc(Cc2nnc(C(=O)[C@@H](NC(=O)CN3C(=O)N[C@H](CC(=O)N(C)C)C3=O)C(C)C)o2)c1 [CE2247, 4-(R)-(2-N,N-Dimethylcarboxamido)-2,5-imidazolidinedione-N-[1-(2-[5-(3-methylbenzyl)-1,3,4-oxadiazolyl]carbonyl)-2-(S)-methylpropyl]acetamide]	–	62.4	1.017	0.572	0.186	–	–	–	13.3	21.2	–	–
Cc1cccc(Cc2nnc(C(=O)[C@@H](NC(=O)CN3C(=O)CN=C(c4ccc5c(c4)OCO5)c4ccccc43)C(C)C)o2)c1 [CE2248]	–	3.1	1.65	1.58	1.22	–	–	–	39.4	63.2	–	–
Cc1cccc(Cc2nnc(C(=O)[C@@H](NC(=O)Cn3c(-c4ccc(F)cc4)ccc(N)c3=O)C(C)C)o2)c1 [CE2251, 2-[5-Amino-6-oxo-2-(4-fluorophenyl)-1,6-dihydro-1-pyridinyl]-N-[1-(2-[5-(3-methylbenzyl)-1,3,4-oxadiazolyl]carbonyl)-2-(S)-methylpropyl]acetamide]	–	0.43	1.63	1.11	0.73	–	–	–	54.1	74.5	–	–
Cc1cccc(Cc2nnc(C(=O)[C@@H](NC(=O)CN3C(=O)CN=C(c4ccccc4N(C)C)c4ccccc43)C(C)C)o2)c1 [CE2258, 2-Oxo-5-phenyl-1,4-(2′-dimethylaminobenzodiazepine)-N-[1-(2-[5-(3-methylbenzyl)-1,3,4-oxadiazolyl]carbonyl)-2-(S)-methylpropyl]acetamide]	–	3.7	1.624	1.5	1.212	–	–	–	42.9	38.1	–	–
CC(C)[C@H](NC(=O)CN1C(=O)NC(c2ccccc2)(c2ccccc2)C1=O)C(=O)c1nnc(Cc2ccc3c(c2)OCO3)o1 [CE2259, 4,4-Diphenyl-2,5-imidazolidinedione-N-[1-(2-[5-(3,4-methylenedioxybenzyl)-1,3,4-oxadiazolyl]carbonyl)-2-(S)-methylpropyl]acetamide]	–	3.3	0.597	0.846	0.502	–	–	–	43	59.6	–	–
CC(C)[C@H](NC(=O)Cn1c(-c2ccc(F)cc2)ncc(N)c1=O)C(=O)c1nnc(-c2ccccc2)o1 [ONO-PO-694, 2-[5-Amino-6-oxo-2-(4-fluorophenyl)-1,6-dihydro-1-pyrimidinyl]-N-[1-(2-[5-phenyl-1,3,4-oxadiazolyl]carbonyl)-2-(S)-methylpropyl]acetamide]	24.8	–	–	–	–	–	–	–	–	–	–	–
